Test results published in US20020160986A1, “Compounds having activity as inhibitors of cytochrome P450RAI” (priority 2000, published 2002).
Like-named read-outs stand apart in the source and are kept apart here.

Columns and labels:
[1] = system: skin of hairless mice; details: topical in acetone, once daily days 1 through 5, mean ±SD, range 0-21
Excerpt: This irritation is a direct result of activation of the RAR nuclear receptors. Analysis of retinoid topical irritation is also a highly reproducible method of determining in vivo retinoid potency. The SKH1-hrBR or hairless mouse provides a convenient animal model of topical irritation, since retinoid-induced skin flaking and abrasion can be readily scored by eye (Standeven et al., “Specific antagonist of retinoid toxicity in mice.” Toxicol. Appl. Pharmacol., 138:169-175, (1996); Thacher, et al., “Receptor specificity of retinoid-induced hyperplasia. Effect of RXR-selective agonists and correlation with topical irritation”. J. Pharm. Exp. Ther., 282:528-534, (1997)).
Female hairless mice (Crl:SKH1-hrBR), 5-7 weeks old, were obtained from Charles River Breeding Labs (Wilmington, Mass.). […]
The mice were weighed daily and the dorsal skin was graded daily using separate semi-quantitative scales to determine flaking and abrasion. […]
Flaking onset score (2) and average severity score (3) are summed and divided by two. […] Composite flaking scores are calculated for each individual animal in a group, averaged, and rounded to the nearest integer. […]
Abrasion onset score (5) and average severity score (6) are summed and divided by two. […] Composite abrasion scores are calculated for each individual animal in a group, averaged and rounded to the nearest integer. […]

[2] = molecular target: T1, P450RAI-1 stably transfected HeLa cells (Homo sapiens, UniProt O43174); assay: P450RAI-1 cell-based inhibitor assay; details: inhibition of all-trans-RA metabolism, [3H]-RA, 3 hours at 37° C.; read-out: P450RAI INHIBITION DATA INTACT HELA IC50
T1 construct: expressed in transfected cells; host or cells: HeLa cells, stably transfected, hygromycin selection
T1 sequence (O43174 1-497): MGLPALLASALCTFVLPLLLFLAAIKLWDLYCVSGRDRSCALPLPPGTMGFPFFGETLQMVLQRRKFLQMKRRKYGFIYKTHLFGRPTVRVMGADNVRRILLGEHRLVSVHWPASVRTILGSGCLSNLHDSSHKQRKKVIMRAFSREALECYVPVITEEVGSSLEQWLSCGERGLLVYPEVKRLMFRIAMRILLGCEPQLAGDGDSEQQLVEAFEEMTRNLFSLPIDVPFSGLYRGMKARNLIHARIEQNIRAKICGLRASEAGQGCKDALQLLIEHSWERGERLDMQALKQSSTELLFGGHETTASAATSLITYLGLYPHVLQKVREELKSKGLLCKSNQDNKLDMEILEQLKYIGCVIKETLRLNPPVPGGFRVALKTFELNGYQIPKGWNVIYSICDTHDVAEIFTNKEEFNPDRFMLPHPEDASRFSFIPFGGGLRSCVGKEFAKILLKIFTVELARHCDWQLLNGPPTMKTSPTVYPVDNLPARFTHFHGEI
Description: P450RAI-1 Cell-Based Inhibitor Assay:
P450RAI -1 stably transfected HeLa cells are maintained in […] tissue culture dishes in Modified Eagle's Medium (MEM) containing 10% Fetal Bovine Serum (FBS) and 100 μg/ml hygromycin. Exponentially growing cells are harvested by incubating in trypsin. Cells are then washed with 1× Phosphate Buffered Saline (PBS) and plated in a 48-well plate at 5×10^5 cells in 0.2 ml MEM medium containing 10% FBS and 0.05 μCi [^3H]-RA in the presence or absence of increasing concentrations of the test compounds. The compounds are diluted in 100% DMSO and then added in triplicate wells at either 10, 1 or 0.1 μM final concentration. As a positive control for RA metabolism inhibition, cells are also incubated with ketoconazole at 100, 10 and 1 μM. Cell are incubated for 3 hours at 37° C. […] The water soluble radioactivity is quantified using a β-scintillation counter. IC50 values represent the concentration of inhibitor required to inhibit all-trans-RA metabolism by 50 percent and are derived manually from log-transformed data.

[3] = molecular target: T2, RARα (Homo sapiens, UniProt P10276); assay: ligand binding assay, RARα; details: read-out: RAR α Kd
T2 sequence (P10276 1-462): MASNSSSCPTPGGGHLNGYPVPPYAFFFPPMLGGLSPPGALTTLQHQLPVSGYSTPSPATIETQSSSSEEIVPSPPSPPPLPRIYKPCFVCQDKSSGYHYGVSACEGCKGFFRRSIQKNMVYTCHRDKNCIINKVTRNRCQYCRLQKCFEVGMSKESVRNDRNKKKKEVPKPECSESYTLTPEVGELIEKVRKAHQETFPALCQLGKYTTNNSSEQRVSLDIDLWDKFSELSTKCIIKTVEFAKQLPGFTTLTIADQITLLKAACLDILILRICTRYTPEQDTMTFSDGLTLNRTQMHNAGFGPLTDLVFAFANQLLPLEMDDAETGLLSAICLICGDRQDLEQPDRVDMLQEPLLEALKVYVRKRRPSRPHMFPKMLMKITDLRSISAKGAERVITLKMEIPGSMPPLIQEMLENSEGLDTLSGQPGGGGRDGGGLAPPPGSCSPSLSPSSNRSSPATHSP
Excerpt: (§1) Assays described below measure the ability of a compound to bind to, and/or activate various retinoid receptor subtypes. When in these assays a compound binds to a given receptor subtype and activates the transcription of a reporter gene through that subtype, then the compound is considered an agonist of that receptor subtype. […] In the below described assays the ability of the compounds to bind to RAR60 , RAR62 , RARγ, RXR60 , RXR62 , and RXRγ receptors, and the ability or inability of the compounds to activate transcription of a reporter gene through these receptor subtypes can be tested.
A holoreceptor transactivation assay and a ligand binding assay which measure the antagonist/agonist like activity of the compounds of the invention, or their ability to bind to the several retinoid receptor subtypes, respectively, are described in published PCT Application No. WO WO93/11755 (particularly on pages 30-33 and 37-41) published on Jun. 24, 1993, the specification of which is also incorporated herein by reference. A detailed experimental procedure for holoreceptor transactivations has been described by Heyman et al. Cell 68,397-406, (1992); Allegretto et al. J. Biol. Chem. 268,26625-26633, and Mangelsdorf et al. The Retinoids: Biology, Chemistry and Medicine, pp 319-349, Raven Press Ltd., New York, which are expressly incorporated herein by reference. […]

[4] = molecular target: T3, RARβ (Homo sapiens, UniProt P10826); assay: ligand binding assay, RARβ; details: read-out: RAR β Kd
T3 sequence (P10826 1-455): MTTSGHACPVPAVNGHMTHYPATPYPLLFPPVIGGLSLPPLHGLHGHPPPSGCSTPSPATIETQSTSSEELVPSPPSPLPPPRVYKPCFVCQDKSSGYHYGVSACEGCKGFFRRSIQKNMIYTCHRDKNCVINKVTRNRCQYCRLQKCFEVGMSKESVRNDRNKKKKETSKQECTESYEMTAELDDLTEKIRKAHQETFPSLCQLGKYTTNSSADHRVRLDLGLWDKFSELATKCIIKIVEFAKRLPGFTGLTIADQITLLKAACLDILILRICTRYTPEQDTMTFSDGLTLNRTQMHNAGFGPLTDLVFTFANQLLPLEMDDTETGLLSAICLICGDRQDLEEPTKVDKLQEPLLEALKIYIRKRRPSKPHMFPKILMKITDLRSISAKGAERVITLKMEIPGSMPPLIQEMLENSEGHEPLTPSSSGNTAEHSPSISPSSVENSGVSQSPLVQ
Excerpt: as §1
A holoreceptor transactivation assay and a ligand binding assay which measure the antagonist/agonist like activity of the compounds of the invention, or their ability to bind to the several retinoid receptor subtypes, respectively, are described in published PCT Application No. WO WO93/11755 (particularly on pages 30-33 and 37-41) published on Jun. 24, 1993, the specification of which is also incorporated herein by reference. […] The results obtained in this assay are expressed in EC50 numbers, as they are also in the chimeric receptor transactivation assay. The results of ligand binding assay are expressed in Kd numbers. (See Cheng et al. Biochemical Pharmacology Vol. 22 pp 3099-3108, expressly incorporated herein by reference.)

Compound | Cutaneous Toxicity Score (Blackjack Score) ([1]; 100 nmole (nmol/25 g)) | Cutaneous Toxicity Score (Blackjack Score) ([1]; 1000 nmole (nmol/25 g)) | IC50 [2] [µM] | Kd [3] [µM] | Kd [4] [µM]
CC1(C)CCC(=O)c2ccc(C#Cc3ccc(CC(=O)O)c(F)c3)cc21 [Compound 15, [2-Fluoro-4-(8.8-dimethyl-5-oxo-5,6,7,8-tetrahydro-naphthalene-2-yl-ethynyl)phenyl]-acetic acid] | 1 ± 1 | 5 ± 2 | – | – | –
Cc1cc(C#Cc2ccc(CC(=O)O)cc2)ccc1Cn1ccnc1 [Compound 121, [4-(4-Imidazol-1-yl-methyl-3-methyl-phenylethynyl)-phenyl]-acetic acid] | – | – | 0.18 | > 10 | > 100
